In patent publication US7612107B2, “Treatment and inhibition of disease conditions using flexible heteroarotinoids” (The Board of Regents of the University of Oklahoma, priority 2005, dated 2009):

How the values were obtained:
Thrombospondin 4 (TSP4) = assay: Real time rt-PCR and Western blot validation, thrombospondin 4; assay type: cell-based; settings: OVCAR-3 1 μM (rt-PCR); A2780 10 μM (Western)
[1] = test system: Thymidine Phosphorylase (TP); assay: Real time rt-PCR and Western blot validation, thymidine phosphorylase; assay type: cell-based; settings: OVCAR-3 1 μM (rt-PCR); A2780 10 μM (Western)
Method: FIG. 13. Real Time rt-PCR validation of SHetA2 inhibition of TP and TSP-1 mRNA Expression. OVCAR-3 cultures were treated with 1 μM SHetA2 for the indicated period of time prior to harvesting the cells and isolating RNA. cDNA was prepared and used in real time rt-PCR reactions. Real time rt-PCR was performed on cDNA from cultures various treatment times.
FIG. 14. Western blot validation of SHetA2 inhibition of TP and TSP4 protein expression. A2780 ovarian cancer cells were treated with 10 μM SHetA2 for the indicated amounts of time. Equal amounts of whole cell protein extracts were evaluated by Western blot.

[2] = test system: A2780 ovarian xenograft tumors; assay: A2780 ovarian xenograft tumor model; assay type: in vivo, mouse; settings: ovarian cancer model
Method: FIG. 12. Various Xenograft tumors stained with CD34 antibodies (brown) to identify endothelium. The B16 mouse melanoma cell line was established as a syngeneic tumor in an immunocompetent mouse model and the human Caki renal cancer and A2780 ovarian xenograft tumors in immunocompromised mice. The treated mice were gavaged with 60 mg/kg/day SHetA2 and the untreated were gavaged with solvent only. The tumors were excised and sections were stained with the anti-CD34 antibody to detect endothelial cells (brown stain).
Survival was the primary endpoint of those studies. […] Tumor growth was the primary endpoint of the renal cancer study.

[3] = test system: organotypic cultures of human ovarian cancer cell lines and primary cultures; assay: Ovarian carcinoma organotypic cultures (TUNEL, histology); assay type: cell-based
Method: FIG. 17. Retinoid effects on ovarian carcinoma organotypic cultures. Organotypic cultures of OVCAR-3 (A, B, E, F, I and J), Caov-3 (C and G), SK-OV-3 (D and H), and O2 (K and L) were grown in the absence (−, top row and K) or presence (+, middle row and I, J and L) of retinoid HetA4 at a concentration of 1 μM in the media. All sections were stained with H&E except for […], which was stained with PAS to detect glycoproteins and glandular differentiation, and J, which was stained with the TUNEL assay to detect apoptosis. All magnifications are 40×.
To test our hypotheses, we evaluated the effects of clinically achievable concentrations of 4-HPR and Flex-Hets on growth, differentiation and apoptosis in ovarian tissue. A series of compounds with a variety of receptor activation profiles were evaluated. In order to evaluate therapeutic effects, we developed an organotypic culture model of ovarian tumors by growing established cell lines and primary cultures inside collagen gels. Monolayer cultures of cells are not accurate representations of in vivo tissue because they lack the types of interactions that cells have with other cells and with the extracellular matrix in vivo. These interactions are known to influence gene expression and thus the constitution and behavior of cells. In our organotypic model, the growth of tumor cells inside the collagen allows a representation of tumors that have invaded stromal tissue. In the presence of fibroblasts, established cell lines and primary cultures of ovarian cancer formed colonies inside the collagen, while normal or benign ovarian epithelial cells remained as single cells inside the collagen. Human ovarian cancer cell lines (OVCAR-3, Caov-3, SK-OV-3, A2780, UCI 101) and primary human cultures (borderline ovarian tumor (O1), serous papillary tumor (O2), benign ovarian cyst (O3)) were cultured inside and on top of a collagen gel seeded with 3T3 fibroblasts for one week. After further incubation in the presence or absence of 1 μM retinoid (media concentration) for 3, 7 or 14 days, cultures were fixed and sectioned for immunohistochemical analysis.
The TUNEL assay was used to evaluate apoptosis in fixed, paraffin embedded, cut sections of the treated and control cultures (FIG. 17). […] These two cellular outcomes appeared to be mutually exclusive.

NF-κB = NF-κB luciferase reporter assay in A2780 cultures; assay type: cell-based; settings: 10 μM SHetA2
Method: FIG. 15. SHetA2 Inhibition of NF-κB. A2780 cultures were transfected with the NF-κB reporter and treated with 10 μM SHetA2 for the indicated times. Cell lysates were prepared and evaluated for luciferase activity which was normalized for protein concentration.
Because both TP and TSP4 have DNA binding sites for the NFκB transcription factor in their promoter, the ability of SHetA2 to inhibit activity of NF-κB in ovarian cancer cultures was tested using a luciferase reporter plasmid driven by NF-κB sites in the promoter. […] Inhibition increased over the 4 hour evaluation time (FIG. 15).

[4] = test system: blood vessel density in bFGF/VEGF-treated CAMs; assay: Chorioallantoic membrane (CAM) assay; assay type: in vivo; settings: 5 μM SHetA2
Method: FIG. 8. Effect of 5 μM SHetA2 on blood vessel density in the CAM assay. The mean±SEM blood vessel density per treatment as compared to bFGF/VEGF-treated CAMs; *=p<0.05 and **=p<0.001 as compared to bFGF/VEGF-treated CAMs as determined by one-way ANOVA and Neuman-Keuls post-test.
The CAM assay that was used is based upon the original procedure by Jakob et al. (36) with modifications made by our laboratory (37, 38) (see FIG. 8).

## CC1(C)CC(C)(C)c2cc(NC(=S)Nc3ccc([N+](=O)[O-])cc3)ccc2S1 [SHetA2]
Thrombospondin 4 (TSP4)
  Expression of TSP-4 at the RNA and protein levels: inhibit expression
[1]
  Expression of TP at the RNA and protein levels: inhibit expression
[2]
  Survival: improved survival
[3]; 1 μM retinoid in media
  Induction of apoptosis (TUNEL) in organotypic cultures: Apoptosis was induced
  Level of apoptosis relative to the other retinoids (TUNEL): highest level of apoptosis
[3]; 1 μM, 3, 7 or 14 days
  Rank as regulator of growth, differentiation and apoptosis among eleven retinoids: most potent regulator of growth, differentiation and apoptosis
NF-κB
  Time to inhibition of NF-κB activity: ≤ 30 min
[4]
  Angiogenesis (blood vessel density) in CAM assay: inhibits angiogenesis
